Measured values from patent US12304932B2, “PACAP stabilized peptide” (SENJU PHARMACEUTICAL CO., LTD., priority 2017, dated 2025).
Square brackets hold non-standard residues; d marks the D form. Peptide text beside a SMILES is read from it. * marks the point of attachment. Ala(1H-tetrazol-5-yl) = N[C@@H](Cc1nnn[nH]1)C(=O)O; Nle = CCCC[C@H](N)C(=O)O; Ms = CS(=O)(=O)*

Experiments:
[1] = Peptide stability test 5: Tris buffer pH 7.0, stored at 60° C., HPLC conditions 3; assay type: physicochemical; conditions: 100 μM peptide, Tris buffer pH 7.0, 60° C.
Procedure: Peptide 26 synthesized in Example 2 was weighed and dissolved in Tris buffer (pH 7.0) to prepare 1.0 mM peptide solutions. Each solution was filtered with a Chromatdisk (product of Merck Millipore, Millex-GV, 0.22 μm). The filtrate was diluted to 100 μM with Tris buffer (pH 7.0) and dispensed into a tube (Protein LoBind Tube by Eppendorf Co.). The prepared peptide solutions were incubated for one week or 2 weeks in a 60° C. thermostatic bath to obtain stored samples. A simultaneously prepared sample among the peptide solutions that was not stored was used as a standard sample (initial sample). The standard sample and the stored samples were stored at −30° C. until sample analysis.
The stored sample was measured under the following HPLC analysis conditions 3, and the survival rate alter correction for water for the peptide among the stored samples was calculated in the same manner as Example 3.
Column: XSelect CSH C18 by Waters Co., 5 μm, 4.6×250 mm
Guard column: XSelect CSH C18 by Waters Co., 5 4.6×20 mm Guard Cartridge
Detection wavelength: 220 nm
Mobile phase A: 0.1% formic acid in water
Mobile phase B: 0.1% formic acid in acetonitrile
Measuring time: 20 minutes
Measuring sample injection volume: 50 μL
Column temperature: 40° C.
Mobile phase delivery: The mixing ratio of mobile phase A and mobile phase B was varied as shown in Table 9 for linear concentration gradient control.

PAC1 receptor (PAC1R) = target: T1, PAC1 receptor (PAC1R) (Homo sapiens, UniProt P41586); conditions: background statement; cited from earlier work
T1 sequence (P41586 21-468): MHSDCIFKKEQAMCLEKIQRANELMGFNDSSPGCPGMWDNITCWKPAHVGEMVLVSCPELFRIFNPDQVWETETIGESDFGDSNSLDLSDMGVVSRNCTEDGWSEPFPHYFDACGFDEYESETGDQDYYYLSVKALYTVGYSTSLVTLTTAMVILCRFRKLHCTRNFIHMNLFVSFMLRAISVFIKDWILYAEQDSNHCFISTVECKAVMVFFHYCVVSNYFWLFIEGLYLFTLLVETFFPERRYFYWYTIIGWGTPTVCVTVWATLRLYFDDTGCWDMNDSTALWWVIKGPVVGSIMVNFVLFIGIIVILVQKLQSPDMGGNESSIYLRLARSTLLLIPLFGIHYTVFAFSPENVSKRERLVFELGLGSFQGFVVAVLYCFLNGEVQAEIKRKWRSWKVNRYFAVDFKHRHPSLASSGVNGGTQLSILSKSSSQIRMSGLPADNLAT

[2] = Peptide stability test 4: phosphate buffer pH 7.0, stored at 40° C.; assay type: physicochemical; conditions: phosphate buffer pH 7.0, 40° C.
Procedure: Peptides 10 and 11 synthesized in Example 2 were weighed and dissolved in phosphate buffer (pH 7.0) to prepare 1.0 mM peptide solutions. The solutions were filtered with a Chromatdisk (product of Merck Millipore, Millex-GV, 0.22 Each filtrate was diluted to 100 μM with phosphate buffer (pH 7.0) and dispensed into a tube (Protein LoBind Tube by Eppendorf Co.). The prepared peptides were incubated for one month or 2 months in a 40° C. thermostatic bath to obtain stored samples. A simultaneously prepared sample among the peptide solutions that was not stored was used as a standard sample (initial sample). The standard sample and the stored samples were stored at −30° C. until sample analysis.
The survival rate after correction for water for each peptide among the stored samples was measured in the same manner as Example 4, and the results are shown in Table 8.

CC[C@H](C)[C@H](NC(=O)CNC(=O)[C@H](Cc1nnn[nH]1)NC(=O)[C@H](CO)NC(=O)[C@H](Cc1c[nH]cn1)NC(C)=O)C(=O)N[C@@H](Cc1ccccc1)C(=O)N[C@H](C(=O)N[C@@H](Cc1nnn[nH]1)C(=O)N[C@@H](C)C(=O)N[C@@H](Cc1ccc(O)cc1)C(=O)N[C@@H](CO)C(=O)N[C@@H](CCCNC(=N)N)C(=O)N[C@@H](Cc1ccc(O)cc1)C(=O)N[C@@H](CCCNC(=N)N)C(=O)N[C@@H](CCCCN)C(=O)N[C@@H](C)C(=O)N[C@@H](CC(C)C)C(=O)N[C@@H](C)C(=O)N[C@H](C(=O)N[C@@H](CCCCN)C(=O)N[C@@H](CCCCN)C(=O)N[C@@H](Cc1ccc(O)cc1)C(=O)N[C@@H](CC(C)C)C(=O)N[C@@H](C)C(=O)N[C@@H](C)C(=O)N[C@H](C(=O)N[C@@H](CC(C)C)C(N)=O)C(C)C)C(C)C)[C@@H](C)O [Peptide 26] (Ac-HS[Ala(1H-tetrazol-5-yl)]GIFT[Ala(1H-tetrazol-5-yl)]AYSRYRKALAVKKYLAAVL-NH2)
survival rate after correction for water, 60° C., 1-week storage ([1]; 1 week): 98.0%
survival rate after correction for water, 60° C., 2-week storage ([1]; 2 weeks): 94.8%

Pituitary adenylate cyclase-activating polypeptide [PACAP]
affinity of PAC1R for PACAP relative to its affinity for VIP (PAC1 receptor (PAC1R)): more than 1000 times

CCCC[C@H](NC(=O)[C@H](CCC(N)=O)NC(=O)[C@H](CCCCN)NC(=O)[C@H](CCCNC(=N)N)NC(=O)[C@H](Cc1ccc(O)cc1)NC(=O)[C@H](CCCNC(=N)N)NC(=O)[C@H](CO)NC(=O)[C@H](Cc1ccc(O)cc1)NC(=O)[C@H](CO)NC(=O)[C@H](Cc1nnn[nH]1)NC(=O)[C@@H](NC(=O)[C@H](Cc1ccccc1)NC(=O)[C@@H](NC(=O)CNC(=O)[C@H](Cc1nnn[nH]1)NC(=O)[C@H](CO)NC(=O)[C@H](Cc1c[nH]cn1)NS(C)(=O)=O)[C@@H](C)CC)[C@@H](C)O)C(=O)N[C@@H](C)C(=O)N[C@H](C(=O)N[C@@H](CCCCN)C(=O)N[C@@H](CCCCN)C(=O)N[C@@H](Cc1ccc(O)cc1)C(=O)N[C@@H](CC(C)C)C(=O)N[C@@H](C)C(=O)N[C@@H](C)C(=O)N[C@H](C(=O)N[C@@H](CC(C)C)C(N)=O)C(C)C)C(C)C [Peptide 11] (Ms-HS[Ala(1H-tetrazol-5-yl)]GIFT[Ala(1H-tetrazol-5-yl)]SYSRYRKQ[Nle]AVKKYLAAVL-NH2)
survival rate after correction for water, 40° C., 1-month storage ([2]; 100 μM peptide, 1 month): 94.2%
survival rate after correction for water, 40° C., 2-month storage ([2]; 100 μM peptide, 2 months): 88.8%
stability in aqueous solution, in words [2]: stabilized to the same degree
